How the values were obtained:
[1] = tested on: Cryptococcus yeast (CHY3833 and CHY3836); assay: Yeast replication secondary screen (OD600); assay type: cell-based, Cryptococcus neoformans serotype D (deneoformans); details: 10 μM, 12 h at 30°C
Procedure: (ii) Yeast replication. CHY3833 and CHY3836 were each grown in YPD liquid overnight at 30°C to saturation and then resuspended in 0.5× YPD at an OD600 of 0.005. Strains were aliquoted into 384-well plates with inhibitors and grown for 12 h at 30°C at […] before OD600 readings were taken. Compounds that caused a >10% decrease in growth were considered yeast growth inhibitors.

[2] = tested on: normal human dermal fibroblasts (NHDF) cells; assay: Fibroblast cytotoxicity (CellTiter-Glo); assay type: cell-based; details: 10 µM
How it was run: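 Normal human dermal fibroblasts, 1 × 10^3 per well, exposed to compounds at 10 μM for 72 h at 37°C. Viability read as ATP-dependent CellTiter-Glo luminescence. Dose-response runs titrated compounds from 80 μM to 0.5 μM in duplicate.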

Cc1cccc2nc(CSC(=S)NCc3cccnc3)cn12 [compound 957599]
Yeast Inhibition: % Inhibition [1]: 59.9%
Cytotoxicity: Relative Cell Viability (% of Negative Control) [2]: 10.0 % of Negative Control

CCOC(=O)c1ccc(NC(=O)CCc2ccc(CC)o2)cc1 [compound 652808]
Yeast Inhibition: % Inhibition [1]: 28.0%
Cytotoxicity: Relative Cell Viability (% of Negative Control) [2]: 113.1 % of Negative Control

Cc1ccc(OCCOCC(O)CN2CCN(c3ccc(F)cc3)CC2)cc1C (stereo not shown) [compound 16804490]
Yeast Inhibition: % Inhibition [1]: 17.9%
Cytotoxicity: Relative Cell Viability (% of Negative Control) [2]: 94.5 % of Negative Control

O=S(=O)(Nc1nc2c(Cl)cccc2s1)c1ccc(Cl)s1 [compound 16934160]
Yeast Inhibition: % Inhibition [1]: -6.1%
Cytotoxicity: Relative Cell Viability (% of Negative Control) [2]: 75.3 % of Negative Control

Cc1nc(-c2ccc(F)cc2)sc1CCNC(=O)c1ccc(Br)o1 [compound 7503016]
Yeast Inhibition: % Inhibition [1]: 20.4%
Cytotoxicity: Relative Cell Viability (% of Negative Control) [2]: 97.2 % of Negative Control

O=C1CC(c2ccccc2)[Se]C(c2ccccc2)C1 (stereo not shown) [compound 3287596]
Yeast Inhibition: % Inhibition [1]: 100.2%
Cytotoxicity: Relative Cell Viability (% of Negative Control) [2]: 45.9 % of Negative Control

COc1ccc(Nc2nc3ccc(OC)cc3s2)cc1 [compound 7086348]
Yeast Inhibition: % Inhibition [1]: 31.0%
Cytotoxicity: Relative Cell Viability (% of Negative Control) [2]: 91.3 % of Negative Control

CCCOC1(NS(=O)(=O)c2ccccc2)C(Cl)=C(Cl)C(=O)c2ccccc21 (stereo not shown) [compound 3397555]
Yeast Inhibition: % Inhibition [1]: 101.3%
Cytotoxicity: Relative Cell Viability (% of Negative Control) [2]: 17.7 % of Negative Control

CC(C)(c1ccc(O)cc1)c1ccc(Cl)cc1 [compound 1992009]
Yeast Inhibition: % Inhibition [1]: 96.6%
Cytotoxicity: Relative Cell Viability (% of Negative Control) [2]: 2.1 % of Negative Control

Cc1cc(C(=O)N(CCc2cccs2)C2CC2)c(C)o1 [compound 71781394]
Yeast Inhibition: % Inhibition [1]: 95.6%
Cytotoxicity: Relative Cell Viability (% of Negative Control) [2]: 103.1 % of Negative Control

O=C(COC(=O)c1ccc(C2Nc3ccccc3S(=O)(=O)N2)cc1)Nc1cc(F)ccc1F (stereo not shown) [compound 44117394]
Yeast Inhibition: % Inhibition [1]: 9.7%
Cytotoxicity: Relative Cell Viability (% of Negative Control) [2]: 105.4 % of Negative Control

O=C(NC(=S)NCc1ccccc1)c1ccccc1 [compound 700976]
Yeast Inhibition: % Inhibition [1]: 78.1%
Cytotoxicity: Relative Cell Viability (% of Negative Control) [2]: 97.5 % of Negative Control

S=C1SCN(Cc2ccccn2)CN1Cc1ccco1 [compound 3242906]
Yeast Inhibition: % Inhibition [1]: 100.6%
Cytotoxicity: Relative Cell Viability (% of Negative Control) [2]: 103.5 % of Negative Control

O=C(NCc1ccco1)c1sc2ccccc2c1Cl [compound 2049334]
Yeast Inhibition: % Inhibition [1]: 53.3%
Cytotoxicity: Relative Cell Viability (% of Negative Control) [2]: 88.3 % of Negative Control

C=C(C)Cn1c(Cc2ccc(OC)cc2)nc2ccccc21 [compound 962333]
Yeast Inhibition: % Inhibition [1]: 53.4%
Cytotoxicity: Relative Cell Viability (% of Negative Control) [2]: 73.9 % of Negative Control

COc1cccc2cc(-c3csc(NN=C4CCN(C)CC4)n3)c(=O)oc12 [compound 4913014]
Yeast Inhibition: % Inhibition [1]: 99.6%
Cytotoxicity: Relative Cell Viability (% of Negative Control) [2]: 68.7 % of Negative Control

O=C(NCCc1ccccc1)c1n[nH]c2ccccc12 [compound 1505880]
Yeast Inhibition: % Inhibition [1]: 77.5%
Cytotoxicity: Relative Cell Viability (% of Negative Control) [2]: 87.7 % of Negative Control

Cc1cc(C(=O)N2CCC(Oc3ncccc3Cl)CC2)c(C)o1 [compound 71798856]
Yeast Inhibition: % Inhibition [1]: 54.8%
Cytotoxicity: Relative Cell Viability (% of Negative Control) [2]: 93.6 % of Negative Control

O=C(NCCOc1ccc(F)cc1)c1ccc(C(F)(F)F)cc1 [compound 30865811]
Yeast Inhibition: % Inhibition [1]: 68.2%
Cytotoxicity: Relative Cell Viability (% of Negative Control) [2]: 100.1 % of Negative Control

NC(=O)/C=C/C(=O)Nc1cccc(C(F)(F)F)c1 [compound 707936]
Yeast Inhibition: % Inhibition [1]: 101.2%
Cytotoxicity: Relative Cell Viability (% of Negative Control) [2]: 3.5 % of Negative Control

Cc1c(-n2c(-c3ccccc3)csc2=NC(=O)c2ccccc2)c(=O)n(-c2ccccc2)n1C [compound 1528700]
Yeast Inhibition: % Inhibition [1]: -8.8%
Cytotoxicity: Relative Cell Viability (% of Negative Control) [2]: 93.1 % of Negative Control

NNc1nc2cc3c(cc2s1)OCCO3 [compound 2771030]
Yeast Inhibition: % Inhibition [1]: 99.1%
Cytotoxicity: Relative Cell Viability (% of Negative Control) [2]: 94.3 % of Negative Control

N#CC(C#N)=NNc1cccc(Br)c1 [compound 4199189]
Yeast Inhibition: % Inhibition [1]: 101.2%
Cytotoxicity: Relative Cell Viability (% of Negative Control) [2]: 31.1 % of Negative Control

COc1ccccc1NS(=O)(=O)c1cc(Cl)ccc1Cl [compound 766532]
Yeast Inhibition: % Inhibition [1]: 96.0%
Cytotoxicity: Relative Cell Viability (% of Negative Control) [2]: 56.4 % of Negative Control

Cc1ccc(S(=O)(=O)Nc2cc(Sc3nc[nH]n3)c(O)c3ccccc23)c(C)c1 [compound 2133779]
Yeast Inhibition: % Inhibition [1]: 98.3%
Cytotoxicity: Relative Cell Viability (% of Negative Control) [2]: 3.5 % of Negative Control

CN(C)c1ccc(NC(=O)/C=C/c2ccccc2Cl)cc1 [compound 723732]
Yeast Inhibition: % Inhibition [1]: 27.8%
Cytotoxicity: Relative Cell Viability (% of Negative Control) [2]: 79.8 % of Negative Control

CN(C)/C=C/c1cc(=S)c2ccccc2s1 [compound 5991625]
Yeast Inhibition: % Inhibition [1]: 65.3%
Cytotoxicity: Relative Cell Viability (% of Negative Control) [2]: 72.5 % of Negative Control

Cc1oc2cc(OCCN3CCN(c4ccccc4F)CC3)ccc2c(=O)c1-c1ccccc1 [compound 24280258]
Yeast Inhibition: % Inhibition [1]: 7.5%
Cytotoxicity: Relative Cell Viability (% of Negative Control) [2]: 103.4 % of Negative Control

O=C(/C=C/c1ccco1)N1CCCc2ccccc21 [compound 768672]
Yeast Inhibition: % Inhibition [1]: 37.4%
Cytotoxicity: Relative Cell Viability (% of Negative Control) [2]: 109.0 % of Negative Control

Cl.Fc1ccc(Nc2nc(-c3ccoc3)cs2)cc1F [compound 72720194]
Yeast Inhibition: % Inhibition [1]: 29.6%
Cytotoxicity: Relative Cell Viability (% of Negative Control) [2]: 70.6 % of Negative Control

O=C(N=C1C(Cl)=C(Cl)C(=O)c2ccccc21)c1ccc(Cl)cc1 [compound 4111118]
Yeast Inhibition: % Inhibition [1]: 100.7%
Cytotoxicity: Relative Cell Viability (% of Negative Control) [2]: 7.1 % of Negative Control

OC(COc1ccc(Br)cc1Br)CN1CCc2ccccc2C1 (stereo not shown) [compound 43842355]
Yeast Inhibition: % Inhibition [1]: 76.5%
Cytotoxicity: Relative Cell Viability (% of Negative Control) [2]: 28.9 % of Negative Control

COC(=O)Nc1nc(CC(=O)N2CCN(c3cccc(Cl)c3Cl)CC2)cs1 [compound 16883840]
Yeast Inhibition: % Inhibition [1]: 3.5%
Cytotoxicity: Relative Cell Viability (% of Negative Control) [2]: 62.6 % of Negative Control

O=S(=O)(Nc1cccc2ccccc12)c1ccc(Cl)cc1 [compound 310131]
Yeast Inhibition: % Inhibition [1]: 59.8%
Cytotoxicity: Relative Cell Viability (% of Negative Control) [2]: 67.0 % of Negative Control

Cc1cc(C(=O)NCCn2nc(C(F)(F)F)c3c2CCCC3)c(C)o1 [compound 72718563]
Yeast Inhibition: % Inhibition [1]: 79.7%
Cytotoxicity: Relative Cell Viability (% of Negative Control) [2]: 92.0 % of Negative Control

COc1ccc(Cc2nc3ccccc3[nH]2)cc1 [compound 763894]
Yeast Inhibition: % Inhibition [1]: 23.2%
Cytotoxicity: Relative Cell Viability (% of Negative Control) [2]: 98.0 % of Negative Control

O=S(=O)(Nc1ccc(Br)cc1F)c1cccc(Cl)c1 [compound 983861]
Yeast Inhibition: % Inhibition [1]: 55.6%
Cytotoxicity: Relative Cell Viability (% of Negative Control) [2]: 101.6 % of Negative Control

CCSc1oc(-c2ccco2)nc1[P+](c1ccccc1)(c1ccccc1)c1ccccc1 [compound 4360162]
Yeast Inhibition: % Inhibition [1]: 72.3%
Cytotoxicity: Relative Cell Viability (% of Negative Control) [2]: 41.9 % of Negative Control

Cc1nc(Oc2ccccc2)cc(N2CCN(C(=O)/C=C/c3ccccc3)CC2)n1 [compound 42065409]
Yeast Inhibition: % Inhibition [1]: 15.5%
Cytotoxicity: Relative Cell Viability (% of Negative Control) [2]: 90.0 % of Negative Control

Cc1ccc(N2C(=O)CC(Sc3ccccc3C(=O)N3CCOCC3)C2=O)cc1 (stereo not shown) [compound 2951953]
Yeast Inhibition: % Inhibition [1]: 52.3%
Cytotoxicity: Relative Cell Viability (% of Negative Control) [2]: 94.9 % of Negative Control

Nc1nc(COc2ccc3ccccc3c2)cs1 [compound 973573]
Yeast Inhibition: % Inhibition [1]: 75.7%
Cytotoxicity: Relative Cell Viability (% of Negative Control) [2]: 108.1 % of Negative Control

ClC1(Cl)CC1Cn1cnc2ccccc21 (stereo not shown) [compound 2936975]
Yeast Inhibition: % Inhibition [1]: 49.3%
Cytotoxicity: Relative Cell Viability (% of Negative Control) [2]: 93.7 % of Negative Control

O=[N+]([O-])CC(SCCO)c1ccc(O)cc1 (stereo not shown) [compound 4737365]
Yeast Inhibition: % Inhibition [1]: 99.2%
Cytotoxicity: Relative Cell Viability (% of Negative Control) [2]: 25.2 % of Negative Control

FC(F)(F)c1cccc(N2CCN(c3ncnc4sccc34)CC2)c1 [compound 2497352]
Yeast Inhibition: % Inhibition [1]: 92.5%
Cytotoxicity: Relative Cell Viability (% of Negative Control) [2]: 96.2 % of Negative Control

From PMC8406298, “Discovery of Fungus-Specific Targets and Inhibitors Using Chemical Phenotyping of Pathogenic Spore Germination” (mBio, 2021)
